# What was measured:
# [1] = test system: ADPKD cyst-lining epithelia; details: dose-dependent and time-dependent; cited from earlier work
# [2] = test system: human renal epithelial cells (HKC); details: cited from earlier work
# [3] = test system: HepG2; experiment: Growth inhibition, modified MTT assay, HepG2; assay type: cell-based; details: Homo sapiens, mean of 3 independent tests
# Method in brief: (§1)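 Cells seeded 24 h in 10% FCS medium, switched to serum-free medium for 24 h, then exposed to graded compound concentrations in triplicate. Viability read by MTT (4 h), formazan dissolved in DMSO, OD at 492 nm; IC50 from sigmoidal fit, mean of 3 independent tests.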
# [4] = test system: MCF-7; experiment: Growth inhibition, modified MTT assay, MCF-7; assay type: cell-based; details: Homo sapiens, MCF7; MCF-7, MTT, mean of 3 independent tests
# Method in brief: as §1
# [5] = target: T1, PPAR-γ (Homo sapiens, UniProt P37231); experiment: Transient transfection and transcription assay (luciferase reporter, U2OS cells); assay type: cell-based; details: 24 h treatment
# T1 construct: expressed in transfected cells; host or cells: U2OS cells, transiently transfected with pcDNA3.1 expression vectors (FuGene6)
# T1 sequence (P37231 1-505): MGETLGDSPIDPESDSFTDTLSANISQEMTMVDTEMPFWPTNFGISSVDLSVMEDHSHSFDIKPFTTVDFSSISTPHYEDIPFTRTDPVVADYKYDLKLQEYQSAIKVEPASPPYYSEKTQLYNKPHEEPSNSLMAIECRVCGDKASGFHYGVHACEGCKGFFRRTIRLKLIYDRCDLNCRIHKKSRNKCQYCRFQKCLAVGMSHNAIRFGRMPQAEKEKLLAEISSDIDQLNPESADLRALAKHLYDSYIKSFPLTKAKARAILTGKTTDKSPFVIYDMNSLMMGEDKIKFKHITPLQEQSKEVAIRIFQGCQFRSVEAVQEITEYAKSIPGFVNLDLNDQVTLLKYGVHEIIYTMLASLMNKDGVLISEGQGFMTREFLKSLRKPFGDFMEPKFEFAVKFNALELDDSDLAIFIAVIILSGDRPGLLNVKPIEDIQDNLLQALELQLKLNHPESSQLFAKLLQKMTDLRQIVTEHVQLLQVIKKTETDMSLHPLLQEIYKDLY
# T1 sequence (P19793 1-462 partner): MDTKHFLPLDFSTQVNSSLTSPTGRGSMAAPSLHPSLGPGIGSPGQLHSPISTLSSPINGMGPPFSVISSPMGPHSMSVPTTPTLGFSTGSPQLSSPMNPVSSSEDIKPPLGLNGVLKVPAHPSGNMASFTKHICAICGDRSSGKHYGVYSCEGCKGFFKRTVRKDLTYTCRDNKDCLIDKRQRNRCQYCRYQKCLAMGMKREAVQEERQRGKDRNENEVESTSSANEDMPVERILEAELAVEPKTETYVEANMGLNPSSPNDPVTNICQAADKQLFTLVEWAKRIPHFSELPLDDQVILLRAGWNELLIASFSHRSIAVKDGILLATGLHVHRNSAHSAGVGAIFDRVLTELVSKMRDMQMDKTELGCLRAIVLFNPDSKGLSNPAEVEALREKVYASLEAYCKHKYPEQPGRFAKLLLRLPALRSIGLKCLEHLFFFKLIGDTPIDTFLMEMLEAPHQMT
# [6] = test system: SPC-A1; experiment: Growth inhibition, modified MTT assay, SPC-A1; assay type: cell-based; details: SPCA1, mean of 3 independent tests
# Method in brief: as §1
# [7] = test system: T24; experiment: Growth inhibition, modified MTT assay, T24; assay type: cell-based; details: Homo sapiens, T-24, mean of 3 independent tests
# Method in brief: as §1
# [8] = test system: Han:SPRD rats, animal model of ADPKD; experiment: Administration of rosiglitazone on the Han:SPRD rats (earlier study); assay type: in vivo, rat; details: when they died, chronic high dose
IC50 [3] [µM],melting point [°C],IC50 [4] [µM],EC50 [5] [µM],IC50 [7] [µM],heart and liver weight [8],Compound,apoptosis of ADPKD cyst-lining epithelia [1],proliferation of ADPKD cyst-lining epithelia [1],effect on human renal epithelial cells (HKC) [2],IC50 [6] [µM]
–,–,–,–,–,–,"CCCCC/C=C/C=C1/C(=O)C=C[C@@H]1C/C=C\CCCC(=O)O [Compound 15d-PGJ2, 15d-PGJ2]",induce apoptosis,inhibit the proliferation,relatively weak,–
> 50,104 to 106,22.8,6.31,> 50,–,"CC(Cc1ccc(Oc2cc(N3CCN(Cc4ccccc4)CC3)nc(NCc3ccccc3)n2)cc1)(Oc1ccccc1)C(=O)O (centres unmarked) [Compound 47, 3-{4-[2-Benzylamino-6-(4-benzyl-piperazin-1-yl)-pyrimidin-4-yloxy]-phenyl}-2-methyl-2-phenoxy-propionic acid]",–,–,–,31.5
> 50,136 to 138,> 50,2.95,> 50,–,"CN(C)c1nc(Oc2ccc(CC(C)(Oc3ccccc3)C(=O)O)cc2)cc(N2CCN(Cc3ccccc3)CC2)n1 (centres unmarked) [Compound 49, 3-{4-[6-(4-Benzyl-piperazin-1-yl)-2-dimethylamino-pyrimidin-4-yloxy]-phenyl}-2-methyl-2-phenoxy-propionic acid]",–,–,–,> 50
37.5,120 to 121,27.6,7.08,21.9,–,"CCN(CC)c1nc(Oc2ccc(CC(C)(Oc3ccccc3)C(=O)O)cc2)cc(N2CCN(Cc3ccccc3)CC2)n1 (centres unmarked) [Compound 51, 3-{4-[6-(4-Benzyl-piperazin-1-yl)-2-diethylamino-pyrimidin-4-yloxy]-phenyl}-2-methyl-2-phenoxy-propionic acid]",–,–,–,36.6
29.3,107 to 109,14.6,4.68,19.6,–,"CC(Cc1ccc(Oc2cc(N3CCN(Cc4ccccc4)CC3)ncn2)cc1)(Oc1ccccc1)C(=O)O (centres unmarked) [Compound 28, 3-{4-[6-(4-benzyl-piperazin-1-yl)-pyrimidin-4-yloxy]-phenyl}-2-methyl-2-phenoxy-propionic acid]",–,–,–,28.6
> 50,87 to 89,40.6,5.13,> 50,–,"CC(Cc1ccc(Oc2cc(N3CCN(Cc4cccc(Cl)c4)CC3)nc(N)n2)cc1)(Oc1ccccc1)C(=O)O (centres unmarked) [Compound 11, 3-{4-{2-Amino-6-[4-(3-chloro-benzyl)-piperazin-1-yl]-pyrimidin-4-yloxy}-phenyl}-2-methyl-2-phenoxy-propionic acid]",–,–,–,47.6
80.2,–,45.6,–,69,heart and liver weight gain,"CN(CCOc1ccc(CC2SC(=O)NC2=O)cc1)c1ccccn1 (centres unmarked) [Rosiglitazone, reference compound]",–,–,–,59.8
